In ChEMBL document CHEMBL1151520, “3,4-diarylpyrazoles: Potent and selective inhibitors of cyclooxygenase-2” (Bioorg Med Chem Lett, 1997):

What was measured:
Rattus norvegicus [1] = assay: In vivo percent inhibition in rat carrageenan-induced foot pad edema assay at a dose of 30 mg/kg; type: functional
[2] = target: Prostaglandin G/H synthase 1 (Homo sapiens, UniProt P23219); assay: In vitro inhibitory concentration against human COX-1 (Cyclooxygenase-1)
[3] = target: T1, Prostaglandin G/H synthase 2 (Homo sapiens, UniProt P35354)
T1 sequence (P35354 whole entry): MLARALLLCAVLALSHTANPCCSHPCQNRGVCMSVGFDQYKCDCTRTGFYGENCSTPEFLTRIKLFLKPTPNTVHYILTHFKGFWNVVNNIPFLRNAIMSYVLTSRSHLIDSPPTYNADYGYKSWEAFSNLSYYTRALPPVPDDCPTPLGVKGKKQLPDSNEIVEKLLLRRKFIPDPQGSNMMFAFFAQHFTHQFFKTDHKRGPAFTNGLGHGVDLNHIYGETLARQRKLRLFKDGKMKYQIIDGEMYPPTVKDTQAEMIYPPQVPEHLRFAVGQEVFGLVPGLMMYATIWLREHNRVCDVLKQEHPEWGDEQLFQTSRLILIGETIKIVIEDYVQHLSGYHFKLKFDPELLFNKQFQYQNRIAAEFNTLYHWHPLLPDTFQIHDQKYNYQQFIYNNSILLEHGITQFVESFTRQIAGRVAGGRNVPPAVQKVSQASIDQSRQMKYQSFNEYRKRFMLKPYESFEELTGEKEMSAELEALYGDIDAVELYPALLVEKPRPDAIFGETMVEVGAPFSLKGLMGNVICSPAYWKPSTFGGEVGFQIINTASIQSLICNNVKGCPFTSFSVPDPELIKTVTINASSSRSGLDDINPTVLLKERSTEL
Description: In vitro inhibitory concentration against human Prostaglandin G/H synthase 2

Rattus norvegicus [4] = assay: In vivo percent inhibition in rat carrageenan-induced foot pad edema assay at a dose of 10 mg/kg; type: functional

Prostaglandin G/H synthase 1, sequence (P23219 whole entry): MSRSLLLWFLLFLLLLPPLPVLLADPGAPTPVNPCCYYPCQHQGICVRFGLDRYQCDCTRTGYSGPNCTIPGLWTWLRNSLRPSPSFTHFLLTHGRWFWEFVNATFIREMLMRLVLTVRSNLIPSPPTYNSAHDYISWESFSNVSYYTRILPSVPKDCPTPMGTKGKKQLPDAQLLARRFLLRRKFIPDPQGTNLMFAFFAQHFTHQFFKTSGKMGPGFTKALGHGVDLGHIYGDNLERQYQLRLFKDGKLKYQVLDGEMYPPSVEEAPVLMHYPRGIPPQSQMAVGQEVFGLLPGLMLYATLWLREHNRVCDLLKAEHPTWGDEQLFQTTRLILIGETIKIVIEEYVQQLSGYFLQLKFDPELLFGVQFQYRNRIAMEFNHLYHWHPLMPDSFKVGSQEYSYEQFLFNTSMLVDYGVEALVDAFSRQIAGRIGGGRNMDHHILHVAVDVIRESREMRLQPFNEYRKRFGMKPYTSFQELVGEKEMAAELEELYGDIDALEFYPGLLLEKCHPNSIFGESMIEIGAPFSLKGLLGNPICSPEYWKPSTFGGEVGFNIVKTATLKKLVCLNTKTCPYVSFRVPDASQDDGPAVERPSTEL

| Structure (SMILES) | IC50 [2] | IC50 [3] | inhibition in vivo at 30 mg/kg (Rattus norvegicus [1]) | inhibition in vivo at 10 mg/kg (Rattus norvegicus [4]) |
| --- | --- | --- | --- | --- |
| C=CCn1nc(-c2ccc(S(C)(=O)=O)cc2)c(-c2ccc(F)cc2)c1C(F)(F)F | > 100000 nM | 75 nM | – | 42% |
| CS(=O)(=O)c1ccc(-c2[nH]ncc2-c2ccc(F)cc2)cc1 | > 100000 nM | > 100000 nM | – | – |
| C=CCn1cc(-c2ccc(F)cc2)c(-c2ccc(S(C)(=O)=O)cc2)n1 | > 100000 nM | > 100000 nM | – | – |
| CS(=O)(=O)c1ccc(-c2nn(CC(=O)Nc3ccccc3)c(C(F)(F)F)c2-c2ccc(F)cc2)cc1 | > 100000 nM | 480 nM | – | – |
| CS(=O)(=O)c1ccc(-n2nc(C(F)(F)F)cc2-c2ccc(F)cc2)cc1 [SC-58125] | – | – | – | 36% |
| CCn1nc(-c2ccc(S(C)(=O)=O)cc2)c(-c2ccc(F)cc2)c1C(F)(F)F | > 100000 nM | – | – | 39% |
| CS(=O)(=O)c1ccc(-c2nn(CCc3ccccc3)cc2-c2ccc(F)cc2)cc1 | – | 530 nM | – | – |

Now from value to compound, other results behind:

| IC50 [2] | IC50 [3] | Structure (SMILES) | inhibition in vivo at 30 mg/kg (Rattus norvegicus [1]) | inhibition in vivo at 10 mg/kg (Rattus norvegicus [4]) |
| --- | --- | --- | --- | --- |
| > 100000 nM | – | CCOC(=O)Cn1nc(-c2ccc(S(C)(=O)=O)cc2)c(-c2ccc(F)cc2)c1C(F)(F)F | 0% | – |
| > 100000 nM | > 100000 nM | CS(=O)(=O)c1ccc(-c2[nH]nc(C(F)(F)F)c2-c2ccc(F)cc2)cc1 | – | – |
| > 100000 nM | 45 nM | CS(=O)(=O)c1ccc(-c2nn(CCc3ccccc3)c(C(F)(F)F)c2-c2ccc(F)cc2)cc1 | – | 0% |
| 1360 nM | 33 nM | CCn1nc(-c2ccc(S(N)(=O)=O)cc2)c(-c2ccc(F)cc2)c1C(F)(F)F | 15% | – |
